In brackets after ≈: the same amount, converted by molar mass. Read-outs that look alike come from different tables or passages of the source.
What was measured:
[1] = tested on: Staphylococcus aureus ATCC 6538; assay: Agar-plate diffusion assay, S. aureus; assay type: cell-based; conditions: for Antibacterial Activity Gram-Positive S. aureus Clear Inhibition Zone: at the MID, disk diameter 6 mm; for Antibacterial Activity Gram-Positive S. aureus MID: minimum dose that induced an obvious inhibition zone (1–1.5 mm), 6 mm disk
Protocol: (§1) Staphylococcus aureus ATCC 6538 and Klebsiella pneumoniae were used for biological evaluation. Concentrations assayed ranged from 0.08 to 1.25 µg/disks. DMSO was used to dissolve the compounds, while vancomycin and oxacillin were used as positive controls for Staphylococcus aureus and gentamycin was used as a positive control for Klebsiella pneumoniae. The minimum inhibitory dose (MID, μg/disk) was defined as the minimum dose that induced an obvious inhibition zone (1–1.5 mm). The disk diameter was 6 mm.

[2] = tested on: Klebsiella pneumoniae; assay: Agar-plate diffusion assay, K. pneumoniae; assay type: cell-based; conditions: for Antibacterial Activity Gram-Negative K. pneumoniae Clear Inhibition Zone: at the MID, disk diameter 6 mm; for Antibacterial Activity Gram-Negative K. pneumoniae MID: minimum dose that induced an obvious inhibition zone (1–1.5 mm), 6 mm disk
Protocol: as §1

[3] = tested on: human embryonic kidney (HEK293T) cells; assay: In vitro cytotoxicity assay (MTT); assay type: cell-based
Protocol: (§2) In vitro cytotoxicity was determined against human embryonic kidney (HEK293T) cells. The assay was performed in 96-well treated tissue culture plates. Cells were seeded in the wells (5000 cells in 100 µL media containing RPMI1640, FBS, penicillin and streptomycin) and incubated for 24 h. Samples were then added and plates were again incubated for 48 h. MTT was then added and the plates were incubated for 4 h at 37 °C. Formazan crystals formed were dissolved in EtOH and absorbances were read at λ = 595 nm. The result was analyzed by using Prism 9 software (Graphpad, San Diego, CA, USA) to obtain IC50 values.

[4] = In vitro cytotoxicity assay (MTT); assay type: cell-based, human; conditions: human
Protocol: as §2

[5] = tested on: Staphylococcus aureus; design: method as in PMID 27399938; conditions: cited from earlier work
[6] = tested on: Enterococcus faecium; design: method as in PMID 27399938; conditions: cited from earlier work
[7] = tested on: Escherichia coli; design: method as in PMID 27399938; conditions: cited from earlier work
[8] = tested on: Pseudomonas aeruginosa; design: method as in PMID 27399938; conditions: cited from earlier work
[9] = tested on: Candida albicans; design: method as in PMID 27399938; conditions: cited from earlier work
[10] = tested on: Bsc-1 cells; design: method as in PMID 27399938; conditions: cited from earlier work
[11] = Homo sapiens, HEK-293T, HEK293T cells, methylation and acetylation products, read-out: IC50 against HEK293T
[12] = HEK293T cells, MTT, 48 h, read-out: Cytotoxicity HEK293T IC50

Compound | Antibacterial Activity Gram-Positive S. aureus Clear Inhibition Zone [1] [mm] | Antibacterial Activity Gram-Positive S. aureus MID [1] [µg/Disk] | Antibacterial Activity Gram-Negative K. pneumoniae Clear Inhibition Zone [2] [mm] | Antibacterial Activity Gram-Negative K. pneumoniae MID [2] [µg/Disk] | IC50 [3, 11] [µg/mL] | further results
Gentamycin | 7.67 ± 0.47 | 0.078 | 7.33 ± 0.47 | 0.078 | – | –
Cc1onc(-c2ccccc2)c1C(=O)N[C@@H]1C(=O)N2[C@@H]1SC(C)(C)[C@@H]2C(=O)O [Oxacillin] | 11.33 ± 0.24 | < 0.078 | 7.33 ± 0.24 | 0.078 | – | –
COc1c(Br)cc(Br)cc1Oc1c(Br)cc(Br)c(Br)c1OC [Compound 9, 2,3,5-tribromo-6-(3′,5′-dibromo-2′-methoxyphenoxy) anisole] | – | – | – | – | > 10 | –
COc1cccc2c1C(=O)c1c(O)c3c(c(O)c1C2=O)C[C@@](O)(C(=O)CO)C[C@@H]3O[C@H]1C[C@H](N)[C@H](O)[C@H](C)O1 [Doxorubicin, reference compound] | – | – | – | – | – | IC50 at 48 h [4, 12]: 0.22 ± 0.09 µM
COc1c(Br)cc(Br)cc1Oc1c(Br)c(Br)c(Br)c(Br)c1OC [Compound 8, 2,3,4,5-tetrabromo-6-(3′,5′-dibromo-2′-methoxyphenoxy) anisole] | – | – | – | – | > 10 | –
CC(=O)Oc1c(Br)cc(Br)cc1Oc1c(Br)cc(Br)c(Br)c1OC(C)=O [Compound 13, 2,3,5-tribromo-6-(3′,5′-dibromo-2′-acetoxyphenoxy) phenyl acetate] | – | – | – | – | > 10 | –
Oc1ccccc1Oc1ccccc1O [Compound 30, 2, 2′-oxydiphenol, reference compound] | – | – | – | – | – | IC50 at 48 h [4, 12]: > 198 µM
CC(=O)Oc1c(Br)c(Br)c(Br)c(Br)c1Oc1cc(Br)cc(Br)c1O [Compound 10, 2,3,4,5-tetrabromo-6-(3′,5′-dibromo-2′-hydroxyphenoxy) phenyl acetate] | – | – | – | – | > 10 | –
CC(=O)Oc1c(Br)c(Br)cc(Br)c1Oc1cc(Br)cc(Br)c1O [Compound 12, 2,3,5-tribromo-6-(3′, 5′-dibromo-2′-hydroxyphenoxy) phenyl acetate] | – | – | – | – | > 10 | –
COc1c(Br)c(Br)c(Br)c(Br)c1Oc1cc(Br)cc(Br)c1O [Compound 7] | – | – | – | – | > 10 | –
Oc1c(Br)cc(Br)cc1Oc1c(O)c(Br)c(Br)c(Br)c1Br [Compound 1, 2,3,4,5-tetrabromo-6-(3′, 5′-dibromo-2′-hydroxyphenoxy) phenol] | 7.17 ± 0.24 | 0.078 | 7.00 ± 0.00 | 0.078 | – | IC50 at 48 h ([4]; Cytotoxicity HEK293T IC50): 16.2 ± 1.17 µM
CN[C@H](CC(C)C)C(=O)N[C@H]1C(=O)N[C@@H](CC(N)=O)C(=O)N[C@H]2C(=O)N[C@H]3C(=O)N[C@H](C(=O)N[C@H](C(=O)O)c4cc(O)cc(O)c4-c4cc3ccc4O)[C@H](O)c3ccc(c(Cl)c3)Oc3cc2cc(c3O[C@@H]2O[C@H](CO)[C@@H](O)[C@H](O)[C@H]2O[C@H]2C[C@](C)(N)[C@H](O)[C@H](C)O2)Oc2ccc(cc2Cl)[C@H]1O [Vancomycin] | 7.00 ± 0.00 | 0.078 | 7.33 ± 0.24 | 0.078 | – | –
Oc1cc(Br)cc(Br)c1Oc1cc(Br)cc(Br)c1O [Compound 16, 3,5-dibromo-6-(3′, 5′-dibromo-2′-hydroxyphenoxy) phenol] | 7.00 ± 0.00 | 0.078 | 7.50 ± 0.00 | 0.078 | – | IC50 at 48 h ([4]; Cytotoxicity HEK293T IC50): 8.65 ± 1.11 µM; IC50 ([3]; human, 48 h): 8.11 µM; MIC Staphylococcus aureus [5]: 1.25 to 1.6 µg/mL; MIC Enterococcus faecium [6]: 1.6 to 3.1 µg/mL; MIC Escherichia coli [7]: 50 µg/mL (≈ 96.6 µM); MIC Pseudomonas aeruginosa [8]: > 50 µg/mL; MIC Candida albicans [9]: > 50 µg/mL; IC50 against Bsc-1 cells [10]: > 50 µg/mL
CC(=O)Oc1c(Br)cc(Br)cc1Oc1c(Br)c(Br)c(Br)c(Br)c1OC(C)=O [Compound 11, 2,3,4,5-tetrabromo-6-(3′,5′-dibromo-2′-acetoxyphenoxy) phenyl acetate] | – | – | – | – | > 10 | –

— paper PMC8588277, “Oxy-Polybrominated Diphenyl Ethers from the Indonesian Marine Sponge, Lamellodysidea herbacea: X-ray, SAR, and Computational Studies” (Molecules, 2021)
